The values that follow come from ChEMBL document CHEMBL1147586, “Discovery of a dihydropyrimidine series of molecules that selectively mimic the biological actions of calcitonin” (Bioorg Med Chem Lett, 2004).

Series [1] concerns HEK293. In words: Fold increase expressed as pmol of cAMP accumulation by the compound/basal level of cAMP produced by GLP1-7HEK cells at 25 uM; No activity. Type of series: functional, cell-based. The following applies: Homo sapiens. In general terms: Changes in cAMP serve as a functional read-out for many G protein-coupled receptors.
Series [2] has as its system HEK293. In words: Fold increase expressed as pmol of cAMP accumulation by the compound/basal level of cAMP produced by CGRP1-7HEK cells at 25 uM; No activity. Particulars: Homo sapiens. Type of series: functional, cell-based.
Series [3] has as its system HEK293. In words: Fold increase expressed as pmol of cAMP accumulation by the compound/basal level of cAMP produced at 25 uM in multiplex cell based assay; 4.7/4.0. Type of series: functional, Homo sapiens.
In series [4] the test system is HEK293. The series can be described thus: Fold increase expressed as pmol of cAMP accumulation by the compound/basal level of cAMP produced by EPTH1-1HEK cells at 25 uM; No activity. The series is classed as functional, cell-based. Particulars: Homo sapiens.
For series [5], the system named is HEK293. In words: Fold increase expressed as pmol of cAMP accumulation by the compound/basal level of cAMP produced by CTR-2HEK cells at 25 uM. Type of series: functional, Homo sapiens.
Series [6] deals with HEK293. In words: Fold increase expressed as pmol of cAMP accumulation by the compound/basal level of cAMP produced by GIP-1HEK cells at 25 uM; No activity. The series is classed as functional, cell-based. Particulars: Homo sapiens.
Series [7] deals with HEK293. The series can be described thus: Fold increase expressed as pmol of cAMP accumulation by the compound/basal level of cAMP produced by GLU-1HEK cells at 25 uM; No activity. The following applies: Homo sapiens. Type of series: functional, cell-based.
Series [8] deals with HEK293. In words: Fold increase expressed as pmol of cAMP accumulation by the compound/basal level of cAMP produced at 25 uM in multiplex cell based assay; 5.1/4.4. Type of series: functional, Homo sapiens.
The subject of series [9] is HEK293. The series can be described thus: Fold induction of cAMP accumulation in HEK 293 cells at 75u M. The series is classed as functional, Homo sapiens.
In series [10] the test system is HEK293. In words: In vitro cAMP accumulation in HEK 293 cells. Type of series: functional, cell-based. Particulars: Homo sapiens.
Series [11] has as its system HEK293. In words: Fold increase expressed as pmol of cAMP accumulation by the compound/basal level of cAMP produced at 25 uM in multiplex cell based assay; 4.7/3.2. Type of series: functional, Homo sapiens.
Series [12] concerns HEK293. In words: Fold increase expressed as pmol of cAMP accumulation by the compound/basal level of cAMP produced at 25 uM in multiplex cell based assay; 4.5/5.7. Type of series: functional, Homo sapiens.
The nature of series [13]: Bioavailability in rat after intravenous administration at 2 mpk. Particulars: in vivo, read-out: Bioavailabiility. Type of series: ADME, organism-based.
The test system of the next series is Rattus norvegicus. The series can be described thus: Bioavailability in rat after peroral administration at 100 mpk. Type of series: functional, organism-based.
Series [14] is described as follows: Bioavailability in rat after intravenous administration at 1 mpk. Type of series: ADME, organism-based. The following applies: in vivo, read-out: Bioavailabiility.
Series [15] can be described thus: Bioavailability in rat after peroral administration at 30 mpk. Type of series: ADME, organism-based. The following applies: in vivo, po, 30 mg/kg, read-out: Bioavailabiility.
The subject of series [16] is monkey. In words: Bioavailability in monkey after peroral administration at 10 mpk. The following applies: in vivo, po, 10 mg/kg, read-out: Bioavailabiility.
For series [17], the system named is monkey. The series can be described thus: Bioavailability in monkey after intravenous administration at 1 mpk. The following applies: in vivo, read-out: Bioavailabiility.

The structures appear in SMILES notation. Active and inactive are the calls of the source. No cut-off for these calls is given here.

Take `CCC1=C([N+](=O)[O-])C(c2ccc3c(c2)OCO3)NC(=O)N1` (centres undefined): the Fold-induction entry in the series with HEK293 [1], in the series on HEK293 [2], in the series on HEK293 [4], in the series on HEK293 [6] and in the series with HEK293 [7] was “inactive” each time. In addition, the Fold-induction with HEK293 [3] was 4.7; with HEK293 [5], 12.

Take `CC1=C(C(=O)OCC(F)(F)C(F)(F)F)C(c2ccccc2)NC(=O)N1` (centres undefined): the values for the Fold-induction in the series with HEK293 [8] and in the series on HEK293 [5] were 5.1 and 9, respectively. The Fold-induction result in the series on HEK293 [1], with HEK293 [2], in the series with HEK293 [4], in the series with HEK293 [6] and in the series with HEK293 [7] was “inactive” throughout.

`CCCC1=C(C(=O)OCc2ccc(C(=O)NCCCN(C)C)cc2)C(c2cccc(C)c2)NC(=O)N1` (centres undefined) yielded a Fold-induction with HEK293 [9] of 55. In the series with HEK293 [10], the EC50 (usually the concentration at which the effect is half-maximal) came out at 1.4 µM.

For the compound `CC(C)C[C@H](NC(=O)[C@H](CCCCN)NC(=O)CNC(=O)[C@H](CC(C)C)NC(=O)[C@@H](NC(=O)[C@@H]1CSSC[C@H](N)C(=O)N[C@@H](CO)C(=O)N[C@@H](CC(N)=O)C(=O)N[C@@H](CC(C)C)C(=O)N[C@@H](CO)C(=O)N[C@@H]([C@@H](C)O)C(=O)N1)C(C)C)C(=O)N[C@@H](CO)C(=O)N[C@@H](CCC(N)=O)C(=O)N[C@@H](CCC(=O)O)C(=O)N[C@@H](CC(C)C)C(=O)N[C@@H](Cc1c[nH]cn1)C(=O)N[C@@H](CCCCN)C(=O)N[C@@H](CC(C)C)C(=O)N[C@@H](CCC(N)=O)C(=O)N[C@H](C(=O)N[C@@H](Cc1ccc(O)cc1)C(=O)N1CCC[C@H]1C(=O)N[C@@H](CCCNC(=N)N)C(=O)N[C@H](C(=O)N[C@@H](CC(N)=O)C(=O)N[C@H](C(=O)NCC(=O)N[C@@H](CO)C(=O)NCC(=O)N[C@H](C(=O)N1CCC[C@H]1C(N)=O)[C@@H](C)O)[C@@H](C)O)[C@@H](C)O)[C@@H](C)O` [CALCITONIN SALMON], the Fold-induction in the series on HEK293 [9] stood at 40. For the same compound, it took 0.003 µM to reach a half-maximal effect in the series with HEK293 [10] (EC50).

For `CCCC1=C(C(=O)OCc2ccc(C(=O)NCCN3CCOCC3)cc2)C(c2cccc(C)c2)NC(=O)N1` (centres undefined), the Fold-induction with HEK293 [9] was determined as 50. The compound also returned a concentration for a half-maximal effect (EC50) in the series with HEK293 [10] of 4.3 µM.

In the series with HEK293 [9], `COc1ccc(COC(=O)C2=C(C(C)C)NC(=O)NC2c2cccc(C)c2)cc1` (centres undefined) displayed a Fold-induction of 33. For the same compound, in the series on HEK293 [10], it took 5.8 µM to reach a half-maximal effect (EC50).

On to `CCCC1=C(C(=O)OCc2ccc(C(=O)OC)cc2)C(c2cccc(C)c2)NC(=O)N1` (centres undefined), for which, in the series on HEK293 [9], the Fold-induction is given as 42. The compound also displayed an EC50 in the series with HEK293 [10] of 1 µM.

As to `CCCC1=C(C(=O)OCc2ccc(C(=O)NCCCN3CCCCC3)cc2)C(c2cccc(C)c2)NC(=O)N1` (centres undefined), in the series with HEK293 [9], the Fold-induction was determined as 52. Besides, the EC50 in the series with HEK293 [10] stood at 1.9 µM.

Regarding `CCCC1=C(C(=O)OCc2ccc(C(=O)O)cc2)C(c2cccc(C)c2)NC(=O)N1` (centres undefined), the Fold-induction in the series on HEK293 [9] stood at 61. In addition, the EC50 in the series with HEK293 [10] amounted to 3.4 µM.

As for `CCCC1=C(C(=O)OCC)C(c2cc(C)cc(C)c2)NC(=O)N1` (centres undefined), the Fold-induction in the series with HEK293 [9] is on record as 34. Further, in the series with HEK293 [10], a half-maximal response (EC50) required 9.5 µM.

Consider `CCCC1=C(C(=O)OCc2ccccc2)C(c2cccc(C)c2)NC(=O)N1` (centres undefined), for which the Fold-induction with HEK293 [9] was 36. Further, the 50% effective concentration (EC50) in the series with HEK293 [10] was determined as 5.2 µM.

In the case of `CCCC1=C(C(=O)OCc2ccc(C(=O)N(C)CCN3CCCCC3)cc2)C(c2cccc(C)c2)NC(=O)N1` (centres undefined), in the series with HEK293 [9], the Fold-induction stood at 55. This compound also returned an EC50 in the series on HEK293 [10] of 4.4 µM.

On to `CCCC1=C(C(=O)OCC)C(c2cccc(Cl)c2)NC(=O)N1` (centres undefined), for which, in the series on HEK293 [9], the Fold-induction is 21. Besides, the EC50 with HEK293 [10] was 6.8 µM.

As for `C=CCOC(=O)C1=C(C)NC(=O)NC1c1ccc2c(c1)OCO2` (centres undefined), the values for the Fold-induction in the series on HEK293 [11] and with HEK293 [5] were 4.7 and 8, respectively. For the same compound, the Fold-induction entry in the series on HEK293 [1], in the series on HEK293 [2], in the series with HEK293 [4], in the series with HEK293 [6] and in the series on HEK293 [7] was “inactive” throughout.

On to `CC1=C(C(=O)OC2CCCC2C)C(c2ccccc2)NC(=O)N1` (centres undefined), for which the values for the Fold-induction with HEK293 [12] and in the series with HEK293 [5] were 4.5 and 8, respectively. Also, the Fold-induction result in the series on HEK293 [1], with HEK293 [2], with HEK293 [4], in the series on HEK293 [6] and with HEK293 [7] was “inactive” each time.

For the compound `CC1=C(C(=O)OCc2ccccc2)C(c2cccc(C)c2)NC(=O)N1` (centres undefined), the Fold-induction in the series with HEK293 [9] is 23. A half-maximal effect in the series on HEK293 [10] (EC50) was put at 15 µM.

In the series on HEK293 [9], `CCCC1=C(C(=O)OCC)C(c2cccc(C)c2)NC(=O)N1` (centres undefined) came in with a Fold-induction of 35. Further, the EC50 in the series on HEK293 [10] came to 7.5 µM. Besides, the bioavailability (in series [13]; in the series with Rattus norvegicus) was 2% throughout.

In turn, `CCCC1=C(C(=O)OCc2ccc(C(=O)NCCN3CCCCC3)cc2)C(c2cccc(C)c2)NC(=O)N1` (centres undefined) gave a Fold-induction with HEK293 [9] of 51. The compound also displayed an EC50 in the series with HEK293 [10] of 1.3 µM. The bioavailability is 65% in series [14], 65% in [15], 13% in the series on monkey [16] and 13% with monkey [17].

`CCCC1=C(C(=O)OCc2ccc(C(=O)NCCCN3CCN(C)CC3)cc2)C(c2cccc(C)c2)NC(=O)N1` (centres undefined) showed a Fold-induction in the series on HEK293 [9] of 55. In the series with HEK293 [10], this compound came in with an EC50 of 4.3 µM.

In turn, `CC1=C(C(=O)OCc2ccccc2)C(c2ccccc2)NC(=O)N1` (centres undefined) displayed a Fold-induction in the series on HEK293 [9] of 17. In addition, the EC50 in the series with HEK293 [10] was more than 20 µM.

As to `CCCC1=C(C(=O)OCc2ccc(C(=O)N(C)C)cc2)C(c2cccc(C)c2)NC(=O)N1` (centres undefined), in the series on HEK293 [9], the Fold-induction is 40. The compound further displayed an EC50 in the series with HEK293 [10] of 3.4 µM.

Consider `CCCCCC1=C(C(=O)OCC)C(c2cccc(C)c2)NC(=O)N1` (centres undefined), for which the Fold-induction in the series on HEK293 [9] is 31.
